From US20260373132A1, “PERK INHIBITORHC-5404 IN COMBINATION WITH ANTI-PD-1 ANTIBODY AND/OR AN ANTIANGIOGENETIC AGENT FOR USE IN THE TREATMENT OF CANCER” (HIBERCELL, INC., priority 2022, published 2026)

Legend:
BLK = BLK (Homo sapiens, UniProt P51451); experiment: KINOMEScan biochemical panel assay, BLK; assay type: binding; details: 1000 nM
Protocol: (§1) The selectivity of HC-5404 against the broader kinome was then evaluated using a KINOMEScan biochemical panel assay that measured binding against 468 unique kinases, including 403 wild-type human kinases and 59 mutant isoforms.

RIOK2 = RIOK2 (Homo sapiens, UniProt Q9BVS4); experiment: KINOMEScan biochemical panel assay, RIOK2; assay type: binding; details: 1000 nM
RIOK2, sequence (Q9BVS4 whole entry): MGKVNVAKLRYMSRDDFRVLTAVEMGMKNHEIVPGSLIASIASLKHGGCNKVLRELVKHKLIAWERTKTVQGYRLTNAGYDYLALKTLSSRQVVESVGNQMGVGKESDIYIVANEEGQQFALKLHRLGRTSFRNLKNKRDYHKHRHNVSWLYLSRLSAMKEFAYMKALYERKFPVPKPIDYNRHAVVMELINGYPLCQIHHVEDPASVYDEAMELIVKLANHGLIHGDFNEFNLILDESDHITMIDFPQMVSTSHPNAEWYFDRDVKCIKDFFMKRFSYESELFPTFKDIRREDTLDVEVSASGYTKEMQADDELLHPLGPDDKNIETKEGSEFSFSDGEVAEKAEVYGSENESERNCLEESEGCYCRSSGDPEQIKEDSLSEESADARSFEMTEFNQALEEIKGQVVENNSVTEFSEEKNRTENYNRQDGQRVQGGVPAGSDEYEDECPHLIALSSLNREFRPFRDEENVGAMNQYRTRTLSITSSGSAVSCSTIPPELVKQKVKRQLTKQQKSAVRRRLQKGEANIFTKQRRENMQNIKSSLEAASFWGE
Protocol: as §1

[1] = mouse body weight / tolerability; assay type: in vivo; details: 786-O, HC-5404 3, 10, 30 mg/kg BID and/or cabozantinib 30 mg/kg QD (FIG. 53)
Protocol: Body weight and tumor volume were measured twice weekly. Tumor volume was calculated using the formula [tumor volume (mm^3)=π/6×length×width^2] and plotted as means+SEM. The percentage of tumor growth inhibition was calculated at the end of the study using the formula: […], if ΔT>0, ΔT, mean tumor volume of the drug-treated group on the observation day of the study—mean tumor volume of the drug-treated group on initial day of dosing; ΔC, mean tumor volume of the control group on the observation day of the study—mean tumor volume of the control group on initial day of dosing. Regression was calculated using the formula=100×ΔT/Tinitial, if ΔT<0. Animals with >50% regressions were partial responders. Animals with tumor volume of 0 (no measurable tumor) were considered as complete responders, and animals with <50% tumor regression and 30% growth over the baseline were considered as stable disease. Animals with tumors>30% increase over the baseline were considered progressive disease. The % change in body weight was calculated by the formula (body weight on observation day−body weight on initial day)/body weight on initial day×100%.

[2] = system: mouse bone marrow-derived MDSCs / T cells; experiment: mouse T cell suppression assay with bone marrow-derived MDSCs; assay type: cell-based; details: LSLG + 500 nM (FIG. 11A, 11C)
Protocol: Mouse MDSC Preparation: Single cell suspensions from bone marrow were prepared from the tibia and femur bone of C57BL/6 mice. Cells were cultured in RPMI complete medium (RPMI medium supplemented with 10% FBS, 10 mM HEPES, 1 mM Sodium pyruvate, 50 uM 2-ME, 1 mM MEM NEAA, 1× penicillin-streptomycin and 2 mM L-glutamax) at 2.5×10^6 cells per 10 ml in a […] tissue culture dish for 4 days in a 37 0 °C, 5% CO2 humidified incubator. Cytokines GM-CSF (10 ng/ml) and IL-6 (10 ng/mL) were added to the cell culture on day 0. For low serum low glucose (LSLG) medium treatment, cultured cells were first harvested from the plate and washed twice with RPMI medium to rinse off residual serum and glucose, and then cultured in 5 ml of LSLG medium (glucose-free RPMI supplemented with 1% FBS, 1 g/L glucose, 1× penicillin-streptomycin and 2 mM L-glutamax) in a 15 ml conical tube for 6 hours with or without HC-5404 addition. Cells were harvested and used in the T cell suppression assay.
Mouse T cell suppression assay: Spleens were harvested from C57BL/6 mice. […] T cell proliferation was analyzed by flow cytometry. […] The labeled cells were analyzed on a BD Fortessa cytometer and data was analyzed by FlowJo. […] Data were analyzed using one-way ANOVA with multiple comparison corrected with Dunnett test. *P<0.05; **P<0.01; ***P<0.005, ****P<0.0001 (FIGS. 11A, 11B, and 11C).

[3] = system: MFE280 endometrial cancer model; experiment: MFE280 endometrial xenograft tumor growth; assay type: in vivo, mouse; details: single agent: HC-5404 30 mg/kg PO BID or lenvatinib 10 mg/kg QD (FIG. 77)
Protocol: Xenograft RCC models were generated as follows: Female NOD.SCID mice (6-8 weeks of age) were injected with A498 RCC cells (5×10^6 cells/mouse), female Balb/c Nude mice (6-8 weeks old) were implanted with 786-O RCC cells (5×10^6 cells/mouse) or Caki-1 RCC cells (6×10^6 cells/mouse), female Athymic Nude-Foxn1nu mice (7-8 weeks of age) were implanted with MFE280 endometrial cells (10×10^6 cells/mouse). Cells were implanted into the flank of animals.
Once tumor tumors reached volume of typically 150-250 mm^3, animals were randomized by tumor volume into the treatment groups of 8 or 10 animals per group. In the single animal trial with RCC PDX models, only one animal per group was enrolled.
Body weight and tumor volume were measured twice weekly. Tumor volume was calculated using the formula [tumor volume (mm^3)=π/6×length×width^2] and plotted as means+SEM. The percentage of tumor growth inhibition was calculated at the end of the study using the formula: 100−[1−(ΔT/ΔC)], if ΔT>0, ΔT, mean tumor volume of the drug-treated group on the observation day of the study—mean tumor volume of the drug-treated group on initial day of dosing; ΔC, mean tumor volume of the control group on the observation day of the study—mean tumor volume of the control group on initial day of dosing. Regression was calculated using the formula=100×ΔT/Tinitial, if ΔT<0. […]

[4] = system: pro-angiogenic cytokines in mouse plasma; experiment: plasma pro-angiogenic cytokines, mice bearing 786-O tumors; assay type: in vivo
Protocol: Mouse plasma sampled following 7 days of treatment with HC-5404 (30 mpk, PO, BID) and cabozantinib (30 mpk, PO, QD). Multiple cytokines associated with angiogenesis were quantified by Illumina multiplex.
Plasma analysis from mice bearing 786-O tumors, treated with HC-5404 at 3, 10, or 30 mg/kg (PO; BID) as a single agent or in combination with cabozantinib (30 mg/kg; PO; QD). Multiple cytokines associated with angiogenesis were quantified by Illumina multiplex (FIG. 86, FIG. 87, FIG. 88, FIG. 89, FIG. 90).

RXF-2667 = experiment: RCC PDX single animal trial, RXF-2667; assay type: in vivo, mouse; details: HC-5404 30 mg/kg PO BID, n=1
From the text: This example investigated the effect of HC-5404 in combination with VEGFR-TKIs in inhibiting tumor growth using 12 RCC PDX tumor models, following procedures analogous to those described above.
Single animal per group (n=1) trial of animals harboring diverse RCC PDX models were used in this study.

BLK, sequence (P51451 whole entry, canonical isoform): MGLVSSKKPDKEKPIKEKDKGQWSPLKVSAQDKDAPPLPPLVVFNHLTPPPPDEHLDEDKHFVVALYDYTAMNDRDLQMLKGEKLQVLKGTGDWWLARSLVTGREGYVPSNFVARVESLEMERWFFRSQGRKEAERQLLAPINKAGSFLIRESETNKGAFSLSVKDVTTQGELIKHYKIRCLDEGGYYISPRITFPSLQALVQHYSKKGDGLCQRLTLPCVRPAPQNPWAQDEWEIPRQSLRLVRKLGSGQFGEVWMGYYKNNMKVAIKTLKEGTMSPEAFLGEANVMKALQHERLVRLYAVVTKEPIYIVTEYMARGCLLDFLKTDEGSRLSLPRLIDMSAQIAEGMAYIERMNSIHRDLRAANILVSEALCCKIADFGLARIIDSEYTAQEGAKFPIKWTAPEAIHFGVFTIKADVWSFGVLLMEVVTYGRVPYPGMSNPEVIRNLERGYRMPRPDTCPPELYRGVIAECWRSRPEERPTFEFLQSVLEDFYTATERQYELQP

## Cc1cc(NC(=O)[C@H](O)c2cc(F)cc(F)c2)ccc1-c1cnc(N)c(C(=O)NC(C)C)c1 [HC-5404, (R)-2-amino-5-(4-(2-(3,5-difluorophenyl)-2-hydroxyacetamido)-2-methylphenyl)-N-isopropylnicotinamide]
BLK
  inhibition of BLK: inhibited
RIOK2
  inhibition of RIOK2: inhibited
[1]
  mouse body weight: did not affect mouse body weight
[2]
  inhibition of T-cells by MDSCs: reduced inhibition of T-cells
[3]
  TGI %: ~ 37%
[4]; 3, 10, 30 mg/kg PO BID (FIG. 86)
  VEGF-A in plasma: decreased in plasma by HC-5404 as a single agent in a dose-dependent fashion
[4]; 3, 10, 30 mg/kg PO BID, alone or with cabozantinib (FIG. 89)
  LYVE-1 in plasma: decreased by HC-5404 in a dose-dependent manner
[4]; 3, 10, 30 mg/kg PO BID, alone or with cabozantinib (FIG. 90)
  Syndecan in plasma: decreased by HC-5404 as monotherapy
RXF-2667
  antitumor efficacy as monotherapy: exhibited antitumor efficacy
